Results reported in patent publication US8309730B2, “Nonsteroidal compounds useful as modulators of glucocorticoid receptor AP-1 and/or NF-kappab acitivity and use thereof” (Bristol-Myers Squibb Company, priority 2007, dated 2012).

Target: T1, human glucocorticoid receptor (Homo sapiens, UniProt P04150)
T1 construct: purified human recombinant full-length glucocorticoid receptor (2 nM); purchased Invitrogen Part #2893
T1 sequence (P04150 1-777): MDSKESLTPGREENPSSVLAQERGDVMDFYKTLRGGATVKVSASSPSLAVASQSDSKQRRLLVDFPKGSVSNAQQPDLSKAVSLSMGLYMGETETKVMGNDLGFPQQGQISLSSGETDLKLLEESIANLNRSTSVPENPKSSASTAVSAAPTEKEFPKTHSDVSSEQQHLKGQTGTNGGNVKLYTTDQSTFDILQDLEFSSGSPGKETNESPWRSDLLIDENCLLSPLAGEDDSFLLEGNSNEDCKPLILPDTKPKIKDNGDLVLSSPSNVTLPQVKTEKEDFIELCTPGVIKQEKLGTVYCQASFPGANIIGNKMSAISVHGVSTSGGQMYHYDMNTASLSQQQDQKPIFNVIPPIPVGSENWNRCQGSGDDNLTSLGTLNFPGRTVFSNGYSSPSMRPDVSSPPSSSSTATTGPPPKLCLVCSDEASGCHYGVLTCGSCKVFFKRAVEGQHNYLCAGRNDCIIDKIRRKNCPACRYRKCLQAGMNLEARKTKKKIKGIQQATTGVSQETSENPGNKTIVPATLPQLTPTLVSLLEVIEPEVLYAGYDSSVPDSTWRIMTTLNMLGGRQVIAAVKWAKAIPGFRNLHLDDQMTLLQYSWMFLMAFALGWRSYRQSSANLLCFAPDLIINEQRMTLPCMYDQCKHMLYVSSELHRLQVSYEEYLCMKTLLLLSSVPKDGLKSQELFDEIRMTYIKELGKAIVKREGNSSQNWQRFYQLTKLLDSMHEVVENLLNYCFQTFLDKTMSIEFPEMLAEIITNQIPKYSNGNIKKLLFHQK
Experiment: Glucocorticoid Receptor Binding Assay (I), fluorescence polarization competitor kit
Conditions: purified human recombinant full-length GR, Fluormone GS Red, 2 h room temperature
Description: Briefly, purified human recombinant full-length glucocorticoid receptor (2 nM) was mixed with fluorescently labeled glucocorticoid (1 nM Fluormone GS Red) in the presence or absence of test compound. After two hours incubation at room temperature in the dark, the fluorescence polarization (FP) of the sample was measured. […] Test compounds were analyzed in the concentration range from 8.5E-05 μM to 5 μM.

Compound	Ki [nM]
C[C@]12Cn3cnc(-c4ccc(F)cc4)c3C=C1CCC[C@@H]2CO [Example 4a, ((5aR,6S)-1-(4-Fluorophenyl)-5a-methyl-5,5a,6,7,8,9-hexahydroimidazo[1,5-b]isoquinolin-6-yl)methanol]	111
C[C@]12Cn3cnc(-c4ccc(F)cc4)c3C=C1CCC[C@@H]2CNc1nccs1 [Example 4b, N-(((5aR,6S)-1-(4-fluorophenyl)-5a-methyl-5,5a,6,7,8,9-hexahydroimidazo[1,5-b]isoquinolin-6-yl)methyl)thiazol-2-amine]	215
C[C@]12Cn3cnc(-c4ccc(F)cc4)c3C=C1CCC[C@@H]2CC(=O)Nc1nncs1 [Example 6, 2-((5aR,6R)-1-(4-fluorophenyl)-5a-methyl-5,5a,6,7,8,9-hexahydroimidazo[1,5-b]isoquinolin-6-yl)-N-(1,3,4-thiadiazol-2-yl)acetamide]	7.13
CC(C)(C)NC(=O)NCC[C@H]1CCCC2=Cc3c(-c4ccc(F)cc4)ncn3C[C@@]21C [Example 7, 1-tert-Butyl-3-(2-((5aR,6R)-1-(4-fluorophenyl)-5a-methyl-5,5a,6,7,8,9-hexahydroimidazo[1,5-b]isoquinolin-6-yl)ethyl)urea]	95.7
C[C@]12Cn3cnc(-c4ccc(F)cc4)c3C=C1CCC[C@@H]2[C@](C)(O)c1cccc(S(C)(=O)=O)c1 [Example 8a, (S)-1-((5aR,6S)-1-(4-fluorophenyl)-5a-methyl-5,5a,6,7,8,9-hexahydroimidazo[1,5-b]isoquinolin-6-yl)-1-(3-(methylsulfonyl)phenyl)ethanol]	2.12
C[C@]12Cn3cnc(-c4ccc(F)cc4)c3C=C1CCC[C@@H]2[C@](C)(O)c1ncccn1 [Example 11, (S)-1-((5aR,6S)-1-(4-Fluorophenyl)-5a-methyl-5,5a,6,7,8,9-hexahydroimidazo[1,5-b]isoquinolin-6-yl)-1-(pyrimidin-2-yl)ethanol]	68.2
CC(=O)[C@H]1CCCC2=Cc3c(-c4ccccc4)ncn3C[C@@]21C [Example 26]	> 1150
C[C@]12Cn3cnc(-c4ccc(F)cc4)c3C=C1CCC[C@@H]2C(=O)c1ccc(F)cc1 [Example 47]	878
C[C@]12Cn3cnc(-c4ccc(F)cc4)c3C=C1CCC[C@@H]2[C@@H](O)c1ccc(F)cc1 [Example 49]	35.3
C[C@]12Cn3cnc(-c4ccc(F)cc4)c3C=C1CCC[C@@H]2[C@H](O)c1ccc(F)cc1 [Example 50]	29.7
C=CC[C@H](O)[C@H]1CCCC2=Cc3c(-c4ccc(F)cc4)ncn3C[C@@]21C [Example 51]	7.38
C=CC[C@@H](O)[C@H]1CCCC2=Cc3c(-c4ccc(F)cc4)ncn3C[C@@]21C [Example 52]	8.67
CC(C)C[C@@](C)(O)[C@H]1CCCC2=Cc3c(-c4ccc(F)cc4)ncn3C[C@@]21C [Example 59]	9.67
C[C@]12Cn3cnc(-c4ccc(F)cc4)c3C=C1CCC[C@@H]2[C@](C)(O)C#Cc1ccccc1 [Example 70]	59.9
C[C@]12Cn3cnc(-c4ccc(F)cc4)c3C=C1CCC[C@@H]2C(=O)c1ccccc1CN1CCCC1 [Example 72]	> 1150
Cc1cccc(C)c1C(=O)[C@H]1CCCC2=Cc3c(-c4ccc(F)cc4)ncn3C[C@@]21C [Example 76]	207
C[C@]12Cn3cnc(-c4ccc(F)cc4)c3C=C1CCC[C@@H]2[C@](C)(O)c1ccc(C#N)cc1 [Example 79]	3.42
C[C@]12Cn3cnc(-c4ccc(F)cc4)c3C=C1CCC[C@@H]2[C@]1(C)OC(=N)c2ccccc21 [Example 84]	201
C[C@]12Cn3cnc(-c4ccc(F)cc4)c3C=C1CCC[C@@H]2[C@]1(C)OC(=O)c2ccccc21 [Example 85]	177
C[C@]12Cn3cnc(-c4ccc(F)cc4)c3C=C1CCC[C@@H]2CC(=O)Nc1nccs1 [Example 86]	67.1
CC(C)(C)OC(=O)NCC[C@H]1CCCC2=Cc3c(-c4ccc(F)cc4)ncn3C[C@@]21C [Example 88]	11.4
C[C@]12Cn3cnc(-c4ccc(F)cc4)c3C=C1CCC[C@@H]2[C@@H](O)C(F)(F)F [Example 90]	103
C[C@]12Cn3cnc(-c4ccc(F)cc4)c3C=C1CCC[C@@H]2[C@H](O)C(F)(F)F [Example 91]	85.5
C[C@]12Cn3cnc(-c4ccc(F)cc4)c3C=C1CCC[C@@H]2C(=O)C1CCOCC1 [Example 94]	344
CC(C)(O)c1ccc([C@@](C)(O)[C@H]2CCCC3=Cc4c(-c5ccc(F)cc5)ncn4C[C@@]32C)cc1 [Example 98]	4.45
C=CC1(O)CCCC2=Cc3c(-c4ccc(F)cc4)ncn3CC21C (centres unmarked) [Example 101, 1-(4-Fluorophenyl)-5a-methyl-6-vinyl-5,5a,6,7,8,9-hexahydroimidazo[1,5-b]isoquinolin-6-ol]	755
